In US20260108546A1 (ELI LILLY AND COMPANY, priority 2024, published 2026) one finds Emax and EC50 data, which are given here for 10 molecules.

The assay has as its target T1, hGIP-R (Homo sapiens, UniProt P48546).
T1 construct: expressed in transfected cells; host or cells: HEK-293 clonal cell lines
T1 sequence (P48546 22-466): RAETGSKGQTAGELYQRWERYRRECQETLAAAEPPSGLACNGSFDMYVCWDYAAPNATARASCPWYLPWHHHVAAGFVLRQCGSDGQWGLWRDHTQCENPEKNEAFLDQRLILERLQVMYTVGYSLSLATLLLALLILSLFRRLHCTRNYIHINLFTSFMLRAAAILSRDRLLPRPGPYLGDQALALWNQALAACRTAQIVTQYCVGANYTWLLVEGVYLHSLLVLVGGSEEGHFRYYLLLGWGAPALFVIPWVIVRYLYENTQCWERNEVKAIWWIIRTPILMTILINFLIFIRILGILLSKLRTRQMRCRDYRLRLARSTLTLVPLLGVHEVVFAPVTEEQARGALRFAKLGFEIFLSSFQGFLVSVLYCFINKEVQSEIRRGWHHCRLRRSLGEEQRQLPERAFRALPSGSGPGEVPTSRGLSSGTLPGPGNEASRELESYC
As to the kind of experiment: Functional hGIP-R Assay (cAMP formation, HTRF). The class given is cell-based. The following applies: for Emax: cAMP efficacy, percent of maximal response to GIP(1-42)OH, 37° C., 0.1% bovine casein, arithmetic mean ± SEM; for EC50: cAMP potency, HEK-293 cells expressing hGIP-R, incubated at 37° C. in the presence of 0.1% bovine casein, geometric mean, read-out: Human GIP-R EC50, nM (SEM, n). The method in brief: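 HEK-293 cells expressing hGIP-R were given a 20-point compound series in DMEM with 0.1% casein, 250 μM IBMX, 1% DMSO, 30 min at 37 °C. cAMP was read by HTRF against a standard curve, expressed as % of human GIP (1-42) OH maximum; EC50 and Emax came from four-parameter fits.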

Structures are written as SMILES.

The Emax is the size of the effect at its maximum, as opposed to the concentration needed. A word on the EC50: it is the concentration that produces a half-maximal response. Turning to `Cn1cc2cc(-c3ccc([C@H]4C[C@@]45CCN([C@H](Cc4cnn(C(F)F)c4)C(=O)NC(C)(C)Cn4nc(C(F)(F)F)cc4-c4cc(C(F)(F)F)c(=O)n(C)c4)C5=O)cc3)cnc2n1` [Example 130, (R)-3-(1-(Difluoromethyl)-1H-pyrazol-4-yl)-N-(2-methyl-1-(5-(1-methyl-6-oxo-5-(trifluoromethyl)-1,6-dihydropyridin-3-yl)-3-(trifluoromethyl)-1H-pyrazol-1-yl)propan-2-yl)-2-((1R,3R)-1-(4-(2-methyl-2H-pyrazolo[3,4-b]pyridin-5-yl)phenyl)-4-oxo-5-azaspiro[2.4]heptan-5-yl)propanamide], the Emax was found to be 74.9 ± 11.6% and the concentration giving a half-maximal response (EC50) was found to be 104 nM.

Consider `Cn1cc2cc(-c3ccc([C@H]4C[C@@]45CCN([C@H](Cc4cnn(C(F)F)c4)C(=O)NC(C)(C)Cn4nc(C(F)(F)F)cc4-c4cc(F)c6nccn6c4)C5=O)cc3)cnc2n1` [Example 131, (R)-3-(1-(Difluoromethyl)-1H-pyrazol-4-yl)-N-(1-(5-(8-fluoroimidazo[1,2-a]pyridin-6-yl)-3-(trifluoromethyl)-1H-pyrazol-1-yl)-2-methylpropan-2-yl)-2-((1R,3R)-1-(4-(2-methyl-2H-pyrazolo[3,4-b]pyridin-5-yl)phenyl)-4-oxo-5-azaspiro[2.4]heptan-5-yl)propanamide], for which the Emax is 57.9 ± 4.24% and the EC50 amounted to 17.7 nM.

`Cn1cc2cc(-c3ccc([C@H]4C[C@@]45CCN([C@H](Cc4cnn(C(F)F)c4)C(=O)NC(C)(C)Cn4nc(C(F)(F)F)cc4-c4ccc(C(N)=O)[nH]c4=O)C5=O)cc3)cnc2n1` [Example 132, 5-(1-(2-((R)-3-(1-(Difluoromethyl)-1H-pyrazol-4-yl)-2-((1R,3R)-1-(4-(2-methyl-2H-pyrazolo[3,4-b]pyridin-5-yl)phenyl)-4-oxo-5-azaspiro[2.4]heptan-5-yl)propanamido)-2-methylpropyl)-3-(trifluoromethyl)-1H-pyrazol-5-yl)-6-oxo-1,6-dihydropyridine-2-carboxamide]: the maximal response (Emax) was 93.3 ± 0.0968% and the concentration giving a half-maximal response (EC50) was found to be 20.3 nM.

On to `Cn1cc2cc(-c3ccc([C@H]4C[C@@]45CCN([C@H](Cc4cnn(C(F)F)c4)C(=O)NC(C)(C)Cn4nc(C(F)(F)F)cc4-c4cn(C)c(=O)c6ccnn46)C5=O)cc3)cnc2n1` [Example 133, (R)-3-(1-(Difluoromethyl)-1H-pyrazol-4-yl)-N-(2-methyl-1-(5-(5-methyl-4-oxo-4,5-dihydropyrazolo[1,5-a]pyrazin-7-yl)-3-(trifluoromethyl)-1H-pyrazol-1-yl)propan-2-yl)-2-((1R,3R)-1-(4-(2-methyl-2H-pyrazolo[3,4-b]pyridin-5-yl)phenyl)-4-oxo-5-azaspiro[2.4]heptan-5-yl)propanamide], for which the Emax turned out to be 78.4 ± 3.18% and the concentration giving a half-maximal response (EC50) was 13.7 nM.

Turning to `Cn1cc2cc(-c3ccc([C@H]4C[C@@]45CCN([C@H](Cc4cnn(C(F)F)c4)C(=O)NC(C)(C)Cn4nc(C(F)(F)F)cc4-c4ccn(C(F)F)c(=O)c4)C5=O)c(F)c3)cnc2n1` [Example 134, (R)-3-(1-(Difluoromethyl)-1H-pyrazol-4-yl)-N-(1-(5-(1-(difluoromethyl)-2-oxo-1,2-dihydropyridin-4-yl)-3-(trifluoromethyl)-1H-pyrazol-1-yl)-2-methylpropan-2-yl)-2-((1S,3R)-1-(2-fluoro-4-(2-methyl-2H-pyrazolo[3,4-b]pyridin-5-yl)phenyl)-4-oxo-5-azaspiro[2.4]heptan-5-yl)propanamide], the maximal effect (Emax) came out at 57.4 ± 0.103% and the EC50 turned out to be 7.63 nM.

In the case of `CN(C)Cc1ccc(-c2cc(C(F)(F)F)nn2CC(C)(C)NC(=O)[C@@H](Cc2cnn(C(F)F)c2)N2CC[C@@]3(C[C@@H]3c3ccc(-c4cnc5nn(C)cc5c4)cc3F)C2=O)cn1` [Example 135, (R)-3-(1-(Difluoromethyl)-1H-pyrazol-4-yl)-N-(1-(5-(6-((dimethylamino)methyl)pyridin-3-yl)-3-(trifluoromethyl)-1H-pyrazol-1-yl)-2-methylpropan-2-yl)-2-((1S,3R)-1-(2-fluoro-4-(2-methyl-2H-pyrazolo[3,4-b]pyridin-5-yl)phenyl)-4-oxo-5-azaspiro[2.4]heptan-5-yl)propanamide], the maximal effect (Emax) came out at 48.5 ± 2.32% and the 50% effective concentration (EC50) worked out at 5.61 nM.

Turning to `[2H]C([2H])([2H])N(C(=O)[C@H]1C[C@@H]1c1ccc(-c2cnc3nn(C)cc3c2)nc1C(F)(F)F)[C@H](Cc1cnn(C(F)F)c1)C(=O)NC(C)(C)Cn1nc(C(F)(F)F)cc1-c1cc(F)c(=O)n(C)c1` [Example 136, (1S,2S)-N—((R)-3-(1-(Difluoromethyl)-1H-pyrazol-4-yl)-1-((1-(5-(5-fluoro-1-methyl-6-oxo-1,6-dihydropyridin-3-yl)-3-(trifluoromethyl)-1H-pyrazol-1-yl)-2-methylpropan-2-yl)amino)-1-oxopropan-2-yl)-N-(methyl-d3)-2-(6-(2-methyl-2H-pyrazolo[3,4-b]pyridin-5-yl)-2-(trifluoromethyl)pyridin-3-yl)cyclopropane-1-carboxamide], the Emax was determined as 74.6 ± 6.02% and the 50% effective concentration (EC50) was found to be 10.8 nM.

On to `[2H]C([2H])([2H])N(C(=O)[C@H]1C[C@@H]1c1ccc(-c2cnc3nn(C)cc3c2)nc1C(F)F)[C@H](Cc1cnn(C(F)F)c1)C(=O)NC(C)(C)Cn1nc(C(F)(F)F)cc1-c1cc(F)c(=O)n(C)c1` [Example 137, (1S,2S)-N-((R)-3-(1-(Difluoromethyl)-1H-pyrazol-4-yl)-1-((1-(5-(5-fluoro-1-methyl-6-oxo-1,6-dihydropyridin-3-yl)-3-(trifluoromethyl)-1H-pyrazol-1-yl)-2-methylpropan-2-yl)amino)-1-oxopropan-2-yl)-2-(2-(difluoromethyl)-6-(2-methyl-2H-pyrazolo[3,4-b]pyridin-5-yl)pyridin-3-yl)-N-(methyl-d3)cyclopropane-1-carboxamide], for which the Emax was 61.7 ± 1.34% and the half-maximal effective concentration (EC50) was 12.3 nM.

With `[2H]C([2H])([2H])N(C(=O)[C@H]1C[C@@H]1c1ccc(-c2cnc3nn(C)cc3c2)nc1C(F)F)[C@@H](Cc1cnn(C(F)F)c1)C(=O)NC(C)(C)Cn1nc(C(F)(F)F)cc1-c1cc(F)c(=O)n(C)c1` [Example 138, (1S,2S)-N-((S)-3-(1-(Difluoromethyl)-1H-pyrazol-4-yl)-1-((1-(5-(5-fluoro-1-methyl-6-oxo-1,6-dihydropyridin-3-yl)-3-(trifluoromethyl)-1H-pyrazol-1-yl)-2-methylpropan-2-yl)amino)-1-oxopropan-2-yl)-2-(2-(difluoromethyl)-6-(2-methyl-2H-pyrazolo[3,4-b]pyridin-5-yl)pyridin-3-yl)-N-(methyl-d3)cyclopropane-1-carboxamide], the maximum response (Emax) stood at 52.3% and the EC50 worked out at 99.2 nM.

Turning to `[2H]C([2H])([2H])N(C(=O)[C@H]1C[C@@H]1c1cnc(-c2cnc3nn(C)cc3c2)nc1C(F)(F)F)[C@H](Cc1cnn(C(F)F)c1)C(=O)NC(C)(C)Cn1nc(C(F)(F)F)cc1-c1cc(F)c(=O)n(C)c1` [Example 139, (1S,2S)-N-((R)-3-(1-(Difluoromethyl)-1H-pyrazol-4-yl)-1-((1-(5-(5-fluoro-1-methyl-6-oxo-1,6-dihydropyridin-3-yl)-3-(trifluoromethyl)-1H-pyrazol-1-yl)-2-methylpropan-2-yl)amino)-1-oxopropan-2-yl)-N-(methyl-d3)-2-(2-(2-methyl-2H-pyrazolo[3,4-b]pyridin-5-yl)-4-(trifluoromethyl)pyrimidin-5-yl)cyclopropane-1-carboxamide], the maximal effect (Emax) was found to be 99.7 ± 3.49% and the half-maximal effective concentration (EC50) came to 24.8 nM.
